Assay results published in US10800791B2, “Triazole ACC inhibitors and uses thereof” (Gilead Apollo, LLC, priority 2015, dated 2020).
In brackets after ≈: the same amount, converted by molar mass. Read-outs that look alike come from different tables or passages of the source.

Legend:
[1] = test system: C. albicans; assay: Antifungal Activity Assay (broth microtiter MIC), C. albicans; format: cell-based, Candida albicans; settings: Candida albicans, ATCC90028, 48 h
Summary of the method: (§1)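 MICs were scored by eye at 48 h relative to the growth control. Plates followed CLSI M27-A3, with Candida suspensions in RPMI 1640+MOPS giving a final 2.5×10^3 CFU/mL; the colonies came from Sabouraud agar grown overnight at 35 °C.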

[2] = test system: Botrtyis cinerea (Bc); assay: Growth inhibition assay of fungal pathogens, Bc; format: cell-based; settings: 48 h
Summary of the method: (§2)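 Pathogen growth in 17% V8 broth is measured by OD600 at 24 and 48 hours, after blank subtraction, in the presence of compound at 50, 10 and 2 ppm or 2, 0.4 and 0.08 ppm. Inhibition in percent comes from 48-hour readings against the DMSO control.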

[3] = test system: Fusarium moniliforme (Fm); assay: Growth inhibition assay of fungal pathogens, Fm; format: cell-based; settings: for IC90: Fusarium verticillioides, 48 h, read-out: Concentration at 90% Inhibition Fm
Summary of the method: as §2

[4] = test system: Fusarium virguliforme (Fv); assay: Growth inhibition assay of fungal pathogens, Fv; format: cell-based; settings: 48 h
Summary of the method: as §2

[5] = target: fungal (fACC2) (UniProt Q00955); settings: read-out: fACC2 (in vitro ACC2 Inhibition Assay, IC50), ADP-Glo, 5 nM ACC2, 20 μM ATP, 20 μM acetyl-CoA
[6] = test system: Diplodia maydis (Dm); assay: Growth inhibition assay of fungal pathogens, Dm; format: cell-based; settings: Stenocarpella maydis, 48 h
Summary of the method: as §2

[7] = test system: Septoria tritici (St); assay: Growth inhibition assay of fungal pathogens, St; format: cell-based; settings: Zymoseptoria tritici, 48 h
Summary of the method: as §2

[8] = test system: C. parapsilosis; assay: Antifungal Activity Assay (broth microtiter MIC), C. parapsilosis; format: cell-based, Candida parapsilosis; settings: Lodderomyces parapsilosis, ATCC22019, 48 h
Summary of the method: as §1

[9] = target: human (hACC2) (Homo sapiens, UniProt O00763); assay: In vitro ACC inhibition assay (ADP-Glo), hACC2; format: biochemical; settings: 5 nM ACC2, 20 μM ATP, 20 μM acetyl-CoA
Protocol: The detailed procedure is as follows. […] 10 μL ADP glo reagent was added. […] 20 μL kinase detection reagent was added.

[10] = test system: Rhizoctonia solani (Rs); assay: Growth inhibition assay of fungal pathogens, Rs; format: cell-based; settings: 48 h
[11] = Fusarium moniliforme, growth inhibition at 48 hours vs 2% DMSO control

fungal (fACC2), sequence (Q00955 whole entry): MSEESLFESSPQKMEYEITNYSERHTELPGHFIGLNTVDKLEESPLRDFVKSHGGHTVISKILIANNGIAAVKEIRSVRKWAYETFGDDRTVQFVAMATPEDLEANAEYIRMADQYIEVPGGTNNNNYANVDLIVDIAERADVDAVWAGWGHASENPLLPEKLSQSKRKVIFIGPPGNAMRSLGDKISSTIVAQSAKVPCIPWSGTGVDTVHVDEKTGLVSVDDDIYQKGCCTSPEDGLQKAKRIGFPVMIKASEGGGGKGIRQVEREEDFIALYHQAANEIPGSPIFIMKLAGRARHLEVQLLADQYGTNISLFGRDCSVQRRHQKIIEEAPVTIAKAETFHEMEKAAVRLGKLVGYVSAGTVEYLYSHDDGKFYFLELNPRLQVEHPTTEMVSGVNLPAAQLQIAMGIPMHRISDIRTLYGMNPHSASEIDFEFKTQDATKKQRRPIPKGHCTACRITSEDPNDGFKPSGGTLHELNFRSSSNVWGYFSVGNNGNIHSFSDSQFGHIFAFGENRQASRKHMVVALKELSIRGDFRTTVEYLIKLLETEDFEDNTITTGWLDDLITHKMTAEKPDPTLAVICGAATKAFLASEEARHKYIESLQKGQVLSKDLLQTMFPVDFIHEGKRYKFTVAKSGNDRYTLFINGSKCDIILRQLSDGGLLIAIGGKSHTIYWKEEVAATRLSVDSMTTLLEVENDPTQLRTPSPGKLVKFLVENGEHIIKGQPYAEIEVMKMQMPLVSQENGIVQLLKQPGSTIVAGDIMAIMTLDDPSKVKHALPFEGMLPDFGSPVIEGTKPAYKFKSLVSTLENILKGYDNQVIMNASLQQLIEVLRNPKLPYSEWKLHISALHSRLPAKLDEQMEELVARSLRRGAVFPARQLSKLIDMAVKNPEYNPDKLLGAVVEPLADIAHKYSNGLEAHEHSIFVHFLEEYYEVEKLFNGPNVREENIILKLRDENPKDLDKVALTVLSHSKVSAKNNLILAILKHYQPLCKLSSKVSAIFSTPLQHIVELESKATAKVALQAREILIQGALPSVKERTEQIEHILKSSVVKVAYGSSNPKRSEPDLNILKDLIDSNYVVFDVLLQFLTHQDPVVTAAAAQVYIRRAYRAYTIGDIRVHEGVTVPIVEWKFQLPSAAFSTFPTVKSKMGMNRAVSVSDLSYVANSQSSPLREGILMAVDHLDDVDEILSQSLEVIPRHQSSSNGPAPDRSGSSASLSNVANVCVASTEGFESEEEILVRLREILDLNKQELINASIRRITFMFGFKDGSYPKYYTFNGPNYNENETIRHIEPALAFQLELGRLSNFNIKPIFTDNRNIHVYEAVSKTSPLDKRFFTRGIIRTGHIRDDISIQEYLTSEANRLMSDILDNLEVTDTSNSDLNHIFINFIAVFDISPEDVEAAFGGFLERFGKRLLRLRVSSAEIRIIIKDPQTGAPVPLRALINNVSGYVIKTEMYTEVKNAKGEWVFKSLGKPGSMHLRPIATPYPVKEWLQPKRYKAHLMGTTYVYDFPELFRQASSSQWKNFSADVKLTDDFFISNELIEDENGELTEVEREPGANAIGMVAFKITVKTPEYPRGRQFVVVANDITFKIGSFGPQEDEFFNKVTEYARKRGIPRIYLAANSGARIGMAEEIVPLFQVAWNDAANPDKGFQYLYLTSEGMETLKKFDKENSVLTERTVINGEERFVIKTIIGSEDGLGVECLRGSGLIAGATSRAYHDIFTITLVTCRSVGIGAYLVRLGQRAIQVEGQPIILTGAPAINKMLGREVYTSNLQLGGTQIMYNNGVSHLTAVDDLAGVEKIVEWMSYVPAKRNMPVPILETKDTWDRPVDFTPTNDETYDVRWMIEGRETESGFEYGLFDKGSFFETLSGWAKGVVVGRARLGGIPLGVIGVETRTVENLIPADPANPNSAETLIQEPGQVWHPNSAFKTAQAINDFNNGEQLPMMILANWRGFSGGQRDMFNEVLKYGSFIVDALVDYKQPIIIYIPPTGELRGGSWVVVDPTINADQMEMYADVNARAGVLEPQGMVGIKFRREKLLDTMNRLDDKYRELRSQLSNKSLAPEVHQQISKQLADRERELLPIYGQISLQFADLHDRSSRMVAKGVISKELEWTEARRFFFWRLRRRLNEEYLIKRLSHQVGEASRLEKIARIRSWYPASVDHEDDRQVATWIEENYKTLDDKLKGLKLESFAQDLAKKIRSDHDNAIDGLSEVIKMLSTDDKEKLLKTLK
human (hACC2), sequence (O00763 whole entry): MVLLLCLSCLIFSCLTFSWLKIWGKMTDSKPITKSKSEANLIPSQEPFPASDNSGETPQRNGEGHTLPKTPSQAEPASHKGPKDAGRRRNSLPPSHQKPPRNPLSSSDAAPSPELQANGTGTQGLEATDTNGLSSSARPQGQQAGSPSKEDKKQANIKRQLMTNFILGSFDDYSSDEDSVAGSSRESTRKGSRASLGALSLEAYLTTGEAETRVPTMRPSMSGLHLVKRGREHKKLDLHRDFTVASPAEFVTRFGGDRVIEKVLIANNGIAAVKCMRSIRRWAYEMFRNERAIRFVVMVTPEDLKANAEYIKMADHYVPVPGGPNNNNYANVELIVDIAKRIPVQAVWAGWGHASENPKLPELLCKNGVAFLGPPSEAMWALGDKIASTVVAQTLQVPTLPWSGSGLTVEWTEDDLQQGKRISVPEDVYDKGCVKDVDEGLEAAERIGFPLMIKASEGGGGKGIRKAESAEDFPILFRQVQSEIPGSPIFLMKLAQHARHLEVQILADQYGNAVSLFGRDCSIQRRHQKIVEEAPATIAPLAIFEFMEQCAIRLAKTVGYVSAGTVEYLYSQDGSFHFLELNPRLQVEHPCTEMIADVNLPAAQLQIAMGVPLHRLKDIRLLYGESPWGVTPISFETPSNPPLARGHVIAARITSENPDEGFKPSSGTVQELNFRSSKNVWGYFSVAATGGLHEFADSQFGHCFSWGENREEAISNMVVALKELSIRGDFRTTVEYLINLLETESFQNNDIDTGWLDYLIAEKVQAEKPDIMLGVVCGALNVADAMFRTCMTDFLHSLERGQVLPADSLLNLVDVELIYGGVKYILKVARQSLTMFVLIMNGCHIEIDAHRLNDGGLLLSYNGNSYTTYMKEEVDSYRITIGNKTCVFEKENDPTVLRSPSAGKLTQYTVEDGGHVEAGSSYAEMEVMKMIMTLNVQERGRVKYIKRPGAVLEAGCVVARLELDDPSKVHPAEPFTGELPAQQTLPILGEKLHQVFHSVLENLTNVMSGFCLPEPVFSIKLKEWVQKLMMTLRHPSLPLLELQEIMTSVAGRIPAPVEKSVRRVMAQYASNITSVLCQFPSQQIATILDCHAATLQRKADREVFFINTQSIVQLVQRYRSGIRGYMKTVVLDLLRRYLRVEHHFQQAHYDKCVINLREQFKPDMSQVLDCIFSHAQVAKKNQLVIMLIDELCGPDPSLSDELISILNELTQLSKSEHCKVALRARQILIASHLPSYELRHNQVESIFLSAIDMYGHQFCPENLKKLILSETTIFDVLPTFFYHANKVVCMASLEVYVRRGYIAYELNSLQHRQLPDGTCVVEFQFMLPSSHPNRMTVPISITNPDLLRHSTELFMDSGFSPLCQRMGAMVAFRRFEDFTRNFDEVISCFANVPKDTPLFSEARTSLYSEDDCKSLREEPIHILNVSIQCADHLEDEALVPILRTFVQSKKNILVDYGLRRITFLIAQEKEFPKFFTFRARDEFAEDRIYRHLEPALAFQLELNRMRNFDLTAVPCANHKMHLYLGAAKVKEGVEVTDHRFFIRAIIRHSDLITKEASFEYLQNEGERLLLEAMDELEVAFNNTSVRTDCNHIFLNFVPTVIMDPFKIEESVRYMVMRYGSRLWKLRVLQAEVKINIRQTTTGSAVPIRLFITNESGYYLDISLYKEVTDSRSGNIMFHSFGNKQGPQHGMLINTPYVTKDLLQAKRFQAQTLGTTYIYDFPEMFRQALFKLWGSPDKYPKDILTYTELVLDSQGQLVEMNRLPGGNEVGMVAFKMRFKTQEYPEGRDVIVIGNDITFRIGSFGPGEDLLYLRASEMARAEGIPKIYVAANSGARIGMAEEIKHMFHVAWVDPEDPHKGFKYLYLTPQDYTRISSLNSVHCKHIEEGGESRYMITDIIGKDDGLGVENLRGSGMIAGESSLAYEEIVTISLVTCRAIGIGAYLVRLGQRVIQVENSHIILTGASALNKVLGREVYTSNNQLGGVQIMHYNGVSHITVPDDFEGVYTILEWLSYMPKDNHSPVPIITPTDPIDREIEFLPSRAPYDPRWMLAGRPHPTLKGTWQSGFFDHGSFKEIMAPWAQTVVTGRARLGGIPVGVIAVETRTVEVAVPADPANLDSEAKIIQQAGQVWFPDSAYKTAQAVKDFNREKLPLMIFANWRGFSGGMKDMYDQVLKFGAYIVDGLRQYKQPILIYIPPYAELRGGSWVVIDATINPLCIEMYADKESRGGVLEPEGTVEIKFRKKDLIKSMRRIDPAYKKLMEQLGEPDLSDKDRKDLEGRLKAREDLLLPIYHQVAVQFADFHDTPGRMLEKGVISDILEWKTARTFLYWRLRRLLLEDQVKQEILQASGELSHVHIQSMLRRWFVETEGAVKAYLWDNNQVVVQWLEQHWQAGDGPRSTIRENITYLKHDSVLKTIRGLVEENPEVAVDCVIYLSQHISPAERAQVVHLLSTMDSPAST

## COc1ccc(F)cc1[C@H](Cn1c(=O)n(C(C)(C)C(=O)N2CCCC2)c(=O)c2c(C)c(-n3nccn3)sc21)OC[C@H](C)O [Compound I-48, 1-((R)-2-(5-fluoro-2-methoxyphenyl)-2-((S)-2-hydroxy-propoxy)ethyl)-5-methyl-3-(2-methyl-1-oxo-1-(pyrrolidin-1-yl)propan-2-yl)-6-(2H-1,2,3-triazol-2-yl)thieno[2,3-d]pyrimidine-2,4(1H,3H)-dione]
[1]; Table 3a, ATCC 90028, 3 replicates, MIC recorded at 48 h, read-out: MIC, C. albicans ATCC 90028
  MIC: 1.1 to 2 µg/mL (≈ 1.79 to 3.25 µM)
[1]; Table 3b (additional results), ATCC 90028, 3 replicates, MIC recorded at 48 h, read-out: MIC, C. albicans ATCC 90028
  MIC: 0.25 to 1 µg/mL (≈ 0.407 to 1.63 µM)
[2]; Botrtyis cinerea, growth inhibition at 48 hours vs 2% DMSO control, read-out: Concentration at 90% Inhibition Bc
  IC90: 2 µg/mL (≈ 3.25 µM)
[2]; Botrtyis cinerea, growth inhibition vs 2% DMSO control at 48 hours, read-out: Concentration at 90% Inhibition Bc
  IC90: 2 µg/mL (≈ 3.25 µM)
[3]; [11]
  IC90: 0.4 µg/mL (≈ 0.651 µM)
[3]; Fusarium moniliforme, growth inhibition vs 2% DMSO control at 48 hours
  IC90: 0.4 µg/mL (≈ 0.651 µM)
[4]; growth inhibition at 48 hours vs 2% DMSO control, read-out: Concentration at 90% Inhibition Fv
  IC90: 0.4 µg/mL (≈ 0.651 µM)
[4]; growth inhibition vs 2% DMSO control at 48 hours, read-out: Concentration at 90% Inhibition Fv
  IC90: 0.4 µg/mL (≈ 0.651 µM)
[5]; Table 2a
  IC50: 0.4 to 1 nM
[5]; Table 2b, additional results
  IC50: 0.3 to 1 nM
[6]; Diplodia maydis, growth inhibition at 48 hours vs 2% DMSO control, read-out: Concentration at 90% Inhibition Dm
  IC90: 2 µg/mL (≈ 3.25 µM)
[6]; Diplodia maydis, growth inhibition vs 2% DMSO control at 48 hours, read-out: Concentration at 90% Inhibition Dm
  IC90: 2 µg/mL (≈ 3.25 µM)
[7]; Septoria tritici, growth inhibition at 48 hours vs 2% DMSO control, read-out: Concentration at 90% Inhibition St
  IC90: > 50 µg/mL
[7]; Septoria tritici, growth inhibition vs 2% DMSO control at 48 hours, read-out: Concentration at 90% Inhibition St
  IC90: > 50 µg/mL
[8]; Table 3a, ATCC 22019, 3 replicates, MIC recorded at 48 h, read-out: MIC, C. parapsilosis ATCC 22019
  MIC: 2.1 to 4 µg/mL (≈ 3.42 to 6.51 µM)
[8]; Table 3b (additional results), ATCC 22019, 3 replicates, MIC recorded at 48 h, read-out: MIC, C. parapsilosis ATCC 22019
  MIC: 1.01 to 2 µg/mL (≈ 1.64 to 3.25 µM)
[9]; Table 2a
  IC50: 5 to 10 nM
[9]; Table 2b, additional results
  IC50: 5 to 10 nM
[10]; mycelial plugs, growth inhibition at 48 hours vs 2% DMSO control, read-out: Concentration at 90% Inhibition Rs
  IC90: 2 µg/mL (≈ 3.25 µM)
[10]; mycelial plugs, growth inhibition vs 2% DMSO control at 48 hours, read-out: Concentration at 90% Inhibition Rs
  IC90: 10 µg/mL (≈ 16.3 µM)

## COc1ccc(F)cc1[C@H](Cn1c(=O)n(C(C)(C)C(=O)N(C)C)c(=O)c2c(C)c(-n3nccn3)sc21)OC(C)C [Compound I-49, (R)-2-(1-(2-(5-fluoro-2-methoxyphenyl)-2-isopropoxy-ethyl)-5-methyl-2,4-dioxo-6-(2H-1,2,3-triazol-2-yl)-1,4-dihydrothieno[2,3-d]pyrimi-din-3(2H)-yl)-N,N,2-trimethylpropanamide]
[1]; read-out: MIC, C. albicans ATCC 90028, Table 3a, 3 replicates, MIC recorded at 48 h
  MIC: 2.1 to 4 µg/mL (≈ 3.67 to 6.98 µM)
[1]; read-out: MIC, C. albicans ATCC 90028, Table 3b (additional results), 3 replicates, MIC recorded at 48 h
  MIC: 1.01 to 2 µg/mL (≈ 1.76 to 3.49 µM)
[2]; read-out: Concentration at 90% Inhibition Bc, Botrtyis cinerea, growth inhibition at 48 hours vs 2% DMSO control
  IC90: 0.4 µg/mL (≈ 0.698 µM)
[2]; read-out: Concentration at 90% Inhibition Bc, Botrtyis cinerea, growth inhibition vs 2% DMSO control at 48 hours
  IC90: 0.4 µg/mL (≈ 0.698 µM)
[3]; [11]
  Concentration at 90% Inhibition Fm: A (compound concentration of 0.4 ppm at 90% inhibition of fungal pathogens)
[3]
  IC90: 0.4 µg/mL (≈ 0.698 µM)
[4]; read-out: Concentration at 90% Inhibition Fv, Fusarium virguliforme, growth inhibition at 48 hours vs 2% DMSO control
  IC90: 0.4 µg/mL (≈ 0.698 µM)
[4]; read-out: Concentration at 90% Inhibition Fv, Fusarium virguliforme, growth inhibition vs 2% DMSO control at 48 hours
  IC90: 0.4 µg/mL (≈ 0.698 µM)
[5]; Table 2a
  IC50: 1 to 5 nM
[5]; Table 2b, additional results
  IC50: 1 to 5 nM
[6]; read-out: Concentration at 90% Inhibition Dm, Diplodia maydis, growth inhibition at 48 hours vs 2% DMSO control
  IC90: 2 µg/mL (≈ 3.49 µM)
[6]; read-out: Concentration at 90% Inhibition Dm, Diplodia maydis, growth inhibition vs 2% DMSO control at 48 hours
  IC90: 2 µg/mL (≈ 3.49 µM)
[7]; read-out: Concentration at 90% Inhibition St, Septoria tritici, growth inhibition at 48 hours vs 2% DMSO control
  IC90: > 50 µg/mL
[7]; read-out: Concentration at 90% Inhibition St, Septoria tritici, growth inhibition vs 2% DMSO control at 48 hours
  IC90: > 50 µg/mL
[8]; read-out: MIC, C. parapsilosis ATCC 22019, Table 3a, 3 replicates, MIC recorded at 48 h
  MIC: 2.1 to 4 µg/mL (≈ 3.67 to 6.98 µM)
[8]; read-out: MIC, C. parapsilosis ATCC 22019, Table 3b (additional results), 3 replicates, MIC recorded at 48 h
  MIC: > 4.01 µg/mL
[9]; Table 2a
  IC50: 10 to 40 nM
[9]; Table 2b, additional results
  IC50: 10 to 40 nM
[10]; read-out: Concentration at 90% Inhibition Rs, Rhizoctonia solani, mycelial plugs, growth inhibition at 48 hours vs 2% DMSO control
  IC90: 0.4 µg/mL (≈ 0.698 µM)
[10]; read-out: Concentration at 90% Inhibition Rs, Rhizoctonia solani, mycelial plugs, growth inhibition vs 2% DMSO control at 48 hours
  IC90: 0.4 µg/mL (≈ 0.698 µM)
